Earlier results in patent US20260131008A1, “HYALURONIC ACID BASED DRUG DELIVERY SYSTEMS” (priority 2023, published 2026).

Conditions: in vivo

hyaluronic acid [Uncrosslinked HA]
vitreal half-life: weeks
vitreal half-life, shortest estimates: 48 h
